From ChEMBL document CHEMBL4507325 (2021)

Tests used:
Details in all cases: Compound concentration 10.0 uM
[1] = target: 5-hydroxytryptamine receptor 1A (Homo sapiens) (UniProt P08908)
[2] = target: 5-hydroxytryptamine receptor 3A (Homo sapiens) (UniProt P46098)
[3] = target: D(4) dopamine receptor (Homo sapiens) (UniProt P21917)
[4] = target: Kappa-type opioid receptor (Homo sapiens) (UniProt P41145)
[5] = target: D(2) dopamine receptor (Homo sapiens) (UniProt P14416)
[6] = target: Muscarinic acetylcholine receptor M4 (Homo sapiens) (UniProt P08173)
[7] = target: B2 bradykinin receptor (Homo sapiens) (UniProt P30411)
[8] = target: Alpha-1A adrenergic receptor (Homo sapiens) (UniProt P35348)
[9] = target: Beta-3 adrenergic receptor (Homo sapiens) (UniProt P13945)
[10] = target: Sodium-dependent dopamine transporter (Homo sapiens) (UniProt Q01959)

Measured: inhibition

Chain of B2 bradykinin receptor (Homo sapiens) (P30411 whole entry): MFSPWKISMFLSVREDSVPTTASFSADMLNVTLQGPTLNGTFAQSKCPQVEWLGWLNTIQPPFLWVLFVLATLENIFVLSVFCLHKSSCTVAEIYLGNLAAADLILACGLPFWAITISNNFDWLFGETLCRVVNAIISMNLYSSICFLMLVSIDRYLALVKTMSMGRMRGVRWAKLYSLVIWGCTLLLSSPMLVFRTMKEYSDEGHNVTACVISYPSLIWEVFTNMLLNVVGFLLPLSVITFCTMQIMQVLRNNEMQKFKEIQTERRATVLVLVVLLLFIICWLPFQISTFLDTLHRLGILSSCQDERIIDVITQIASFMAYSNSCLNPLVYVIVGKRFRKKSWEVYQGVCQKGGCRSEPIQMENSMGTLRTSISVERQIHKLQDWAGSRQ
Chain of 5-hydroxytryptamine receptor 3A (Homo sapiens) (P46098 whole entry): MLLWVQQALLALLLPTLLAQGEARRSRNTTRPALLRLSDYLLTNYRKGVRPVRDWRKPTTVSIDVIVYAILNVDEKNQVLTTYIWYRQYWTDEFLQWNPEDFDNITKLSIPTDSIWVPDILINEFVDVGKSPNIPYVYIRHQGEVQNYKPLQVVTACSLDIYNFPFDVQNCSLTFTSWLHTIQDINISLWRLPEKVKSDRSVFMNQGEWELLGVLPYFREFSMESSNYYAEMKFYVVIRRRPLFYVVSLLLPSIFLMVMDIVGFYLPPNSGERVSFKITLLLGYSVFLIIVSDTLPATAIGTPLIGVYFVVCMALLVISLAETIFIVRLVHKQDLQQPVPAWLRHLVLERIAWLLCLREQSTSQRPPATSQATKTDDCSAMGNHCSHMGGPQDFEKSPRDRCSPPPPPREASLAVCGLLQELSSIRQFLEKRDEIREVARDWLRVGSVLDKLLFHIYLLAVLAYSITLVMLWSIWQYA
Chain of Alpha-1A adrenergic receptor (Homo sapiens) (P35348 whole entry): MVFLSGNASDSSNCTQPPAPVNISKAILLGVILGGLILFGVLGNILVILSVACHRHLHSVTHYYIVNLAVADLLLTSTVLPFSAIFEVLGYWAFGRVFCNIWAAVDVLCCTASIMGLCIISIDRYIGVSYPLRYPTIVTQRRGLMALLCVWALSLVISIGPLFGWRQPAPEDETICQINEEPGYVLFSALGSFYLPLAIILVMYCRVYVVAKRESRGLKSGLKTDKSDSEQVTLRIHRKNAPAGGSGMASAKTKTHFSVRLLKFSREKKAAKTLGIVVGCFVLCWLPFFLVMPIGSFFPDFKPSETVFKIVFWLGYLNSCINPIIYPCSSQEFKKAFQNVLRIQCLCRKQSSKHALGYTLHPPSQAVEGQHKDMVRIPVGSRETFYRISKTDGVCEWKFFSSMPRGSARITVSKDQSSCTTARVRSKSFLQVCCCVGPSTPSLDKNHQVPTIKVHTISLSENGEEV
Chain of Muscarinic acetylcholine receptor M4 (Homo sapiens) (P08173 whole entry): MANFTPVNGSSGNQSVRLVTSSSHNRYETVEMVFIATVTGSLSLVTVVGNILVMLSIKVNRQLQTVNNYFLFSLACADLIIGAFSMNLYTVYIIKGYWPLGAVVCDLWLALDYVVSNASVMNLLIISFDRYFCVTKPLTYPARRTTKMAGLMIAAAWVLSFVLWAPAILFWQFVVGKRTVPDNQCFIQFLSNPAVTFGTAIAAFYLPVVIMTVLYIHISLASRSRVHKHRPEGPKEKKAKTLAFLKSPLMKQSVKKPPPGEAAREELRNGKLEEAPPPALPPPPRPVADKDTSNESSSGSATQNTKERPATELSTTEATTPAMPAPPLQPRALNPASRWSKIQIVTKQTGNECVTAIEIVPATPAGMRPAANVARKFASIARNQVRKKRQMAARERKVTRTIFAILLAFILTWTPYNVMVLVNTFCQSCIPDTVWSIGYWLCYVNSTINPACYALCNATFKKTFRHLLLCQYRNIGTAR
Chain of Beta-3 adrenergic receptor (Homo sapiens) (P13945 whole entry, looked up): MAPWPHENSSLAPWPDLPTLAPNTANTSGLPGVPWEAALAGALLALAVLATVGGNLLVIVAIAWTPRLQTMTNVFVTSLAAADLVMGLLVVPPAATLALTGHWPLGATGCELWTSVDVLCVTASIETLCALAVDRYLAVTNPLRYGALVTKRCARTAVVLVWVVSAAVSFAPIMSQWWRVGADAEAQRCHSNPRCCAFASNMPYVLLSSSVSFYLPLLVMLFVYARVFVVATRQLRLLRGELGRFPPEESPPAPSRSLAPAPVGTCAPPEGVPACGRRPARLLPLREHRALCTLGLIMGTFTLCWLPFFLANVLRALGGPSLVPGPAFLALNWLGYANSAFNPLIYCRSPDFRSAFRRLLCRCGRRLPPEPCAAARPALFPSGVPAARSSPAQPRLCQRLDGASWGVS
Chain of 5-hydroxytryptamine receptor 1A (Homo sapiens) (P08908 whole entry): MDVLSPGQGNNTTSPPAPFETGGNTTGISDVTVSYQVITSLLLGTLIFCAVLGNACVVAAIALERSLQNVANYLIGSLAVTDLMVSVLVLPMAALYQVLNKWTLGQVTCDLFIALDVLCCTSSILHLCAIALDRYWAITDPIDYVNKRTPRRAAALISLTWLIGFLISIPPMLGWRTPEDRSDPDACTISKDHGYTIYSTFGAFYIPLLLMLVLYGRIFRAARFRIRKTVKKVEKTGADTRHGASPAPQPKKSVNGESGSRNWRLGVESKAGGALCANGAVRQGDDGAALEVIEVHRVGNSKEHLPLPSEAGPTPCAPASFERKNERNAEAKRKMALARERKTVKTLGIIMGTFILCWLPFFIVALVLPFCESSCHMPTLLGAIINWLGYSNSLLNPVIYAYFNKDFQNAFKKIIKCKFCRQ
Chain of Kappa-type opioid receptor (Homo sapiens) (P41145 whole entry): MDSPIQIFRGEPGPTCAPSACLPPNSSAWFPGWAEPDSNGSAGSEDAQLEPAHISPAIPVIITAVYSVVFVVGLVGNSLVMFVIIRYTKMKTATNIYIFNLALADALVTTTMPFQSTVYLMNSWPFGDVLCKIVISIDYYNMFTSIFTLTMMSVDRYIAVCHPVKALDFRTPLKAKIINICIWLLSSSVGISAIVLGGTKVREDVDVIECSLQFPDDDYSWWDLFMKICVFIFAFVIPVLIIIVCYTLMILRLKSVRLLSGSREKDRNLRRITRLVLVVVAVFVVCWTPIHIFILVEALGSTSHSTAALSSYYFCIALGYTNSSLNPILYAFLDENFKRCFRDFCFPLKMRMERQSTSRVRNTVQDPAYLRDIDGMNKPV
Chain of D(4) dopamine receptor (Homo sapiens) (P21917 whole entry): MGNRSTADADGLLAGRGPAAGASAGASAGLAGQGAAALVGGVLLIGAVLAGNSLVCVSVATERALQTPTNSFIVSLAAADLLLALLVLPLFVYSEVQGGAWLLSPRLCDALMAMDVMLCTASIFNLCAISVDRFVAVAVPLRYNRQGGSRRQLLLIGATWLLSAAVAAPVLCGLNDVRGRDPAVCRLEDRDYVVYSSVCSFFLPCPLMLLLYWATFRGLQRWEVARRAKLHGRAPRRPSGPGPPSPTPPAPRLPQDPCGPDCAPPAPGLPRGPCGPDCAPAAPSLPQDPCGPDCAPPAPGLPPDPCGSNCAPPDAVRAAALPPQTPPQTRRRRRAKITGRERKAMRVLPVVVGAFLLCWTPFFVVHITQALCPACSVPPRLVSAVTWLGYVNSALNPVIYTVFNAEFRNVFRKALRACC
Chain of D(2) dopamine receptor (Homo sapiens) (P14416 whole entry): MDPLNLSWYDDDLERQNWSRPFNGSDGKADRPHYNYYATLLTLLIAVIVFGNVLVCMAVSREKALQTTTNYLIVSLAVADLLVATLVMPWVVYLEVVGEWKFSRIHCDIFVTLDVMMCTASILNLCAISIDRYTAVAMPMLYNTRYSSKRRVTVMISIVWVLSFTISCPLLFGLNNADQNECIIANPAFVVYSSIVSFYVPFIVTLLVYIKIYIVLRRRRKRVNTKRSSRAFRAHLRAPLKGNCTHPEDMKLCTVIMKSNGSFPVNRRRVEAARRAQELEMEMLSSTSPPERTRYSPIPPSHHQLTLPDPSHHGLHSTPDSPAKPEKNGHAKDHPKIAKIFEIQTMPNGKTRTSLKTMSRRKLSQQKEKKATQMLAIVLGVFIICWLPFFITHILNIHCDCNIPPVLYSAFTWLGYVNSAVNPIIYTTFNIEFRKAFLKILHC
Chain of Sodium-dependent dopamine transporter (Homo sapiens) (Q01959 whole entry): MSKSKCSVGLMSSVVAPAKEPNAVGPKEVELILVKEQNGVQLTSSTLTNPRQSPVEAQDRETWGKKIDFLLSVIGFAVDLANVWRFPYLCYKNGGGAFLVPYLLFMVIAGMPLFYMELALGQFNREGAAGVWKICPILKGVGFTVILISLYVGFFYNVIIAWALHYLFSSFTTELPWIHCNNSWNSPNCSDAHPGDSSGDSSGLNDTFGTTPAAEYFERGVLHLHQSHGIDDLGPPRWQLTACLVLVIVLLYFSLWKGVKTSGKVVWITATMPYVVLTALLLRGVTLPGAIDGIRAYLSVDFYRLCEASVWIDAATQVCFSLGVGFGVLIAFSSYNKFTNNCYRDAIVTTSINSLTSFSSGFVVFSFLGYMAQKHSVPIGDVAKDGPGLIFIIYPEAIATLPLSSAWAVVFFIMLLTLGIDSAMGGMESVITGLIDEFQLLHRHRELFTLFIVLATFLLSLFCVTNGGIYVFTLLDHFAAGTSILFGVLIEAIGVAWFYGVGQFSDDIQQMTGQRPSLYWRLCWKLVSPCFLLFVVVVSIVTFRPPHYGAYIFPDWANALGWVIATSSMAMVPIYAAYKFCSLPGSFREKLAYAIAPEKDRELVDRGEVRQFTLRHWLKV

Cc1ccccc1Oc1cc(-n2c(=O)cc(C(F)(F)F)[nH]c2=O)c2ccccc2c1Cl [BAY-069]
inactive: [1] 8.88% | [2] 20.3% | [3] 9.05% | [4] 37.5% | [5] -5% | [6] -5% | [7] 1% | [8] -2.81% | [9] 15% | [10] 33%
